Laboratory results as given in PubChem BioAssay (NCI).
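Abbreviation: GI50, concentration required for 50% inhibition of growth. The concentration for full growth arrest is given as TGI.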

Key:
Test in all cases: NCI anticancer screen, dose series, 384-well format
SR leukemia = system: SR leukemia
HT29 colon = system: HT29 colon
HCT-15 colon = system: HCT-15 colon
HCC-2998 colon = system: HCC-2998 colon
U251 glioblastoma = system: U251 glioblastoma
NCI-H23 lung = system: NCI-H23 lung
NCI-H522 lung = system: NCI-H522 lung
SK-MEL-5 melanoma = system: SK-MEL-5 melanoma
OVCAR-8 ovarian = system: OVCAR-8 ovarian
ACHN renal = system: ACHN renal
MCF7 breast = system: MCF7 breast
SN12C renal = system: SN12C renal
MALME-3M melanoma = system: MALME-3M melanoma
MOLT-4 leukemia = system: MOLT-4 leukemia
HS 578T breast = system: HS 578T breast
LOX IMVI melanoma = system: LOX IMVI melanoma
UO-31 renal = system: UO-31 renal
SNB-75 CNS = system: SNB-75 CNS
TK-10 renal = system: TK-10 renal
OVCAR-4 ovarian = system: OVCAR-4 ovarian
M14 melanoma = system: M14 melanoma
A498 renal = system: A498 renal
A549 NSCLC = system: A549 NSCLC
HL-60(TB) leukemia = system: HL-60(TB) leukemia
SW-620 colon = system: SW-620 colon
EKVX NSCLC = system: EKVX NSCLC
CAKI-1 renal = system: CAKI-1 renal
NCI/ADR-RES ovarian = system: NCI/ADR-RES ovarian
SNB-19 CNS = system: SNB-19 CNS
OVCAR-5 ovarian = system: OVCAR-5 ovarian
K-562 leukemia = system: K-562 leukemia
NCI-H226 lung = system: NCI-H226 lung
SK-MEL-28 melanoma = system: SK-MEL-28 melanoma
UACC-257 melanoma = system: UACC-257 melanoma
HOP-62 NSCLC = system: HOP-62 NSCLC
HCT-116 colon = system: HCT-116 colon
MDA-MB-435 melanoma = system: MDA-MB-435 melanoma
SF-295 CNS = system: SF-295 CNS
OVCAR-3 ovarian = system: OVCAR-3 ovarian
RXF 393 renal = system: RXF 393 renal
MDA-MB-468 breast = system: MDA-MB-468 breast
UACC-62 melanoma = system: UACC-62 melanoma
NCI-H460 NSCLC = system: NCI-H460 NSCLC
T-47D breast = system: T-47D breast
CCRF-CEM leukemia = system: CCRF-CEM leukemia
NCI-H322M lung = system: NCI-H322M lung
SF-539 CNS = system: SF-539 CNS

Work on `O=C(/C=C/c1cccc(S(=O)(=O)Nc2ccccc2)c1)NO` yielded a GI50 (SR leukemia) of 0.0884 µM, a TGI (SR leukemia) of 0.204 µM and a GI50 (HT29 colon) of 0.282 µM. For the same compound, the TGI (HT29 colon) was 0.918 µM, the GI50 (HCT-15 colon) was 0.579 µM and the TGI (HCT-15 colon) was 2.1 µM. It also gave a GI50 (HCC-2998 colon) of 0.49 µM, a TGI (HCC-2998 colon) of 1.22 µM and a GI50 (U251 glioblastoma) of 0.43 µM. The TGI (U251 glioblastoma) was 1.34 µM, the GI50 (NCI-H23 lung) was 0.407 µM and the TGI (NCI-H23 lung) was 1.59 µM. The GI50 (NCI-H522 lung) was 0.155 µM, the TGI (NCI-H522 lung) was 0.61 µM and the GI50 (SK-MEL-5 melanoma) was 0.155 µM. For the same compound, the TGI (SK-MEL-5 melanoma) was 0.393 µM, the GI50 (OVCAR-8 ovarian) was 0.225 µM and the TGI (OVCAR-8 ovarian) was 0.985 µM. The GI50 (ACHN renal) was 0.493 µM, the TGI (ACHN renal) was 1.54 µM and the GI50 (MCF7 breast) was 0.264 µM. For the same compound, the TGI (MCF7 breast) was 1.3 µM, the GI50 (SN12C renal) was 0.853 µM and the TGI (SN12C renal) was 2.25 µM. For the same compound, the GI50 (MALME-3M melanoma) was 0.184 µM, the TGI (MALME-3M melanoma) was 0.45 µM and the GI50 (MOLT-4 leukemia) was 0.137 µM. For the same compound, the TGI (MOLT-4 leukemia) was 0.267 µM, the GI50 (HS 578T breast) was 0.474 µM and the TGI (HS 578T breast) was 1.6 µM. For the same compound, the GI50 (LOX IMVI melanoma) was 0.385 µM, the TGI (LOX IMVI melanoma) was 1.41 µM and the GI50 (UO-31 renal) was 1.02 µM. For the same compound, the TGI (UO-31 renal) was 3.17 µM, the GI50 (SNB-75 CNS) was 0.258 µM and the TGI (SNB-75 CNS) was 0.796 µM. It also gave a GI50 (TK-10 renal) of 0.445 µM, a TGI (TK-10 renal) of 2 µM and a GI50 (OVCAR-4 ovarian) of 1.88 µM. For the same compound, the TGI (OVCAR-4 ovarian) was 5.86 µM, the GI50 (M14 melanoma) was 0.537 µM and the TGI (M14 melanoma) was 2.14 µM. For the same compound, the GI50 (A498 renal) was 0.494 µM, the TGI (A498 renal) was 1.45 µM and the GI50 (A549 NSCLC) was 0.422 µM. For the same compound, the TGI (A549 NSCLC) was 1.59 µM, the GI50 (HL-60(TB) leukemia) was 0.223 µM and the TGI (HL-60(TB) leukemia) was 0.373 µM. For the same compound, the GI50 (SW-620 colon) was 0.188 µM, the TGI (SW-620 colon) was 0.436 µM and the GI50 (EKVX NSCLC) was 1.81 µM. The TGI (EKVX NSCLC) was 8.53 µM, the GI50 (CAKI-1 renal) was 0.218 µM and the TGI (CAKI-1 renal) was 0.885 µM. It also gave a GI50 (NCI/ADR-RES ovarian) of 0.21 µM, a TGI (NCI/ADR-RES ovarian) of 0.551 µM and a GI50 (SNB-19 CNS) of 0.853 µM. For the same compound, the TGI (SNB-19 CNS) was 2.24 µM, the GI50 (OVCAR-5 ovarian) was 0.369 µM and the TGI (OVCAR-5 ovarian) was 1.48 µM. It also gave a GI50 (K-562 leukemia) of 0.188 µM, a TGI (K-562 leukemia) of 0.394 µM and a GI50 (NCI-H226 lung) of 1.26 µM. The TGI (NCI-H226 lung) was 3.05 µM, the GI50 (SK-MEL-28 melanoma) was 0.565 µM and the TGI (SK-MEL-28 melanoma) was 1.89 µM. The GI50 (UACC-257 melanoma) was 0.289 µM, the TGI (UACC-257 melanoma) was 1.03 µM and the GI50 (HOP-62 NSCLC) was 0.498 µM. The TGI (HOP-62 NSCLC) was 2.33 µM, the GI50 (HCT-116 colon) was 0.205 µM and the TGI (HCT-116 colon) was 0.63 µM. The GI50 (MDA-MB-435 melanoma) was 0.492 µM, the TGI (MDA-MB-435 melanoma) was 1.45 µM and the GI50 (SF-295 CNS) was 0.607 µM. It also gave a TGI (SF-295 CNS) of 1.91 µM, a GI50 (OVCAR-3 ovarian) of 0.299 µM and a TGI (OVCAR-3 ovarian) of 1.28 µM. The GI50 (RXF 393 renal) was 0.0877 µM, the TGI (RXF 393 renal) was 0.365 µM and the GI50 (MDA-MB-468 breast) was 0.196 µM. For the same compound, the TGI (MDA-MB-468 breast) was 0.487 µM, the GI50 (UACC-62 melanoma) was 0.217 µM and the TGI (UACC-62 melanoma) was 0.597 µM. It also gave a GI50 (NCI-H460 NSCLC) of 0.35 µM, a TGI (NCI-H460 NSCLC) of 1.5 µM and a GI50 (T-47D breast) of 0.208 µM. It also gave a TGI (T-47D breast) of 0.547 µM, a GI50 (CCRF-CEM leukemia) of 0.134 µM and a TGI (CCRF-CEM leukemia) of 0.263 µM. It also gave a GI50 (NCI-H322M lung) of 0.465 µM, a TGI (NCI-H322M lung) of 1.84 µM and a GI50 (SF-539 CNS) of 0.616 µM. For the same compound, the TGI (SF-539 CNS) was 2.65 µM.
